From PMC10187093, “Synthesis, in silico modelling, and in vitro biological evaluation of substituted pyrazole derivatives as potential anti-skin cancer, anti-tyrosinase, and antioxidant agents” (Journal of Enzyme Inhibition and Medicinal Chemistry, 2023)

Assays:
GFP-A431 = experiment: MTT antiproliferative/cytotoxicity assay, A431; format: cell-based, human; settings: Homo sapiens, A-431, 48 h, non-melanoma, MTT, 48 h; read-out: IC50 GFP-A431
mushroom tyrosinase = target: T1, mushroom tyrosinase (Agaricus bisporus, UniProt C7FF04); experiment: In vitro mushroom tyrosinase inhibition assay; format: biochemical
T1 construct: purchased Sigma-Aldrich Chemical Company (St. Louis, MO) and MP Biomedicals (Irvine, CA)
T1 sequence (C7FF04 1-392 limits assumed): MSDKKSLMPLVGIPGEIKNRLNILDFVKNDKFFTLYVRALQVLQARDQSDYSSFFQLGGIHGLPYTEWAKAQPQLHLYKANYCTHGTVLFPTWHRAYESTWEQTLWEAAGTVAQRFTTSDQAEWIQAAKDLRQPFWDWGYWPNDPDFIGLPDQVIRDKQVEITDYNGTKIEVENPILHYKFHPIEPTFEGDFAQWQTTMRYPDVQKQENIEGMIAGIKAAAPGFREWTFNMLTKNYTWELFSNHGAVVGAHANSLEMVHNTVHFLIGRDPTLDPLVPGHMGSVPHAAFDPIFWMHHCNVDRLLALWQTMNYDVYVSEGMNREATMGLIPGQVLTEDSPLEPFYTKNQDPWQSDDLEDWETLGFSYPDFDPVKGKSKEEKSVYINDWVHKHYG

SK-MEL-28 = experiment: Immunoblotting of apoptosis markers, SK-MEL-28; format: cell-based, human; settings: western blot, 48 h, vs untreated
Protocol: (§1) Immunoblotting was performed according to standard procedures of the Bio-Rad electrophoresis system (Bio-Rad, Hercules, CA) as described earlier. Briefly, protein extracts were obtained by lysing cells in RIPA buffer containing protease inhibitors, and were resolved by 4–12% polyacrylamide ready mini-PROTEAN TGX gel electrophoresis with sodium dodecyl sulphate (SDS) running buffer. Gels were electrotransferred to 0.45 μm nitrocellulose membranes (Bio-Rad, Hercules, CA) in Tris-glycine (TG) buffer using a Trans-Blot Turbo Transfer Pack according to manufacturer’s instructions. Membranes were incubated for 1 h in 5–7% non-fat powdered milk dissolved in TBST (Tris-buffered saline containing 0.05% Tween 20) or 5% BSA for phosphorylated proteins, to saturate nonspecific binding sites, followed by an overnight incubation (4 °C) with primary antibodies. Membranes were washed 5× with TBST and treated with suitable HRP-conjugated secondary antibodies (Amersham Life Science Inc., Arlington Height, IL) for another 2 h at room temperature, followed by additional wash steps and chemiluminescence-based detection with the Amersham ECL Prime detection reagent kit and the Bio-Rad Quantity One ChemiDoc™ detection and imaging analysis software systems as described earlier[108]^,[109].

A431 [1] = experiment: Immunoblotting of apoptosis markers, A431; format: cell-based, human; settings: western blot, 48 h, vs untreated
Protocol: as §1

A431 [2] = experiment: Scratch wound healing assay, A431; format: cell-based, human; settings: 0, ½IC50, IC50, 1½IC50; 48 h; vs untreated control
Protocol: The scratch wound healing assay was performed to evaluate compound P25’s ability to limit cell migration and scratch wound closure following our previously described protocol. Briefly, cells were seeded in wells of a 24-well plate and incubated to 100% confluent monolayer, following which a sterile 200 µL Gilson pipette tip was used to scratch a straight line across the centre. […] The wounded and re-epithelialisation areas were imaged at 0 h, 24 h, and 48 h using an inverted phase-contrast Olympus IX51 microscope (Olympus America Inc., Center Valley, PA) attached to an Infinity 2 digital camera. Images were processed with an Infinity analysis software version 6.5.6 (Teledyne Lumenera, Ottawa, Canada) and analysed with Adobe Photoshop. The ImageJ software (NIH, Bethesda, MD) was used to measure the migratory area of each treatment group, with results expressed as remaining percentage of unfilled wound surface at 0 h[108].

SCC-12 = experiment: MTT antiproliferative/cytotoxicity assay, SCC-12; format: cell-based, human
HaCaT = experiment: MTT cytotoxicity assay, noncancerous HaCaT keratinocytes; format: cell-based, human; settings: Homo sapiens, HaCaT; control noncancerous keratinocytes, MTT, 48 h; read-out: IC50 HaCaT
Procedure, shortened: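 Cells at 65–75% confluence treated with 0–40 µM compound (diluted in growth medium from 10 mM DMSO stocks) in sext- to octuplicate for 48 h; viability by MTT. A375 and HaCaT in DMEM with 10% and 5% FBS respectively; SK-MEL-28 in RPMI-1640 with 5% FBS; 37 °C, 5% CO2.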

## O=C1CC(c2ccccc2)=NN1c1ccc(Br)cc1 [P25]
GFP-A431
  IC50: 3.7 ± 0.5 µM
Mushroom tyrosinase; 500 µM, single-concentration screen, read-out: % Inhibition of tyrosinase
  inhibition at 500 µM: 21.9%
Mushroom tyrosinase; > 500 = not biologically relevant, read-out: IC50 Value, mushroom tyrosinase inhibition (Table S1)
  IC50: > 500 µM
SK-MEL-28; concentration-dependent
  activated caspase-3, caspase-9 and cleaved PARP levels, SK-MEL-28: substantially increased levels
SK-MEL-28
  anti-apoptotic Bcl-2 protein levels, SK-MEL-28: corresponding decreases
  pro-apoptotic Bax expression, SK-MEL-28: dose-dependent amplified expression
A431 [1]; concentration-dependent
  activated caspase-3, caspase-9 and cleaved PARP levels, A431: substantially increased levels
A431 [1]
  anti-apoptotic Bcl-2 protein levels, A431: corresponding decreases
  pro-apoptotic Bax expression, A431: dose-dependent amplified expression
A431 [2]
  scratch wound closure / migration, A431: significantly and dose-dependently decreased the scratch wound areas
SCC-12; Homo sapiens, SCC12, 48 h, non-melanoma, MTT, 48 h, read-out: IC50 SCC-12
  IC50: 12.2 ± 0.6 µM
SCC-12; IC50 HaCaT divided by IC50 SCC-12
  selectivity index (SI) SCC-12: ~2.5
HaCaT
  IC50: 30.5 ± 2 µM
